Measured values as given in US20090142766A1, “METHODS FOR MEASURING THE METABOLISM OF CNS DERIVED BIOMOLECULES IN VIVO” (Washington University in St. Louis, priority 2007, published 2009).

Experiments:
[1] = Aβ clearance in cortex of APPswe/PS1deltaE9 double transgenic mice; type: in vivo; details: cortex, 3, 6 and 18 hr after ^13C6-leucine 200 μg/g i.p.
Procedure: To measure the brain Aβ clearance rate in mice, the method developed to assess ApoE clearance described above in Example 4 was performed in APPswe/PS1deltaE9 double transgenic mice (line #85; Jackson Labs, Bar Harbor, Me.). After a bolus intraperitioneal injection of ^13C6-leucine (200 μg/g), cortical brain tissue was harvested at 3, 6, and 18 hr post-injection (n=3) and lysed (lysis buffer, 1% Triton with PBS). Aβ was immunoprecipitated with an Aβ monoclonal antibody (HJ5.2, directed to Aβ 13-28) and then analyzed by nano-LC-MS/MS as described above. […] The clearance rate of soluble Aβ from cortex of transgenic mice was very similar with that of Aβ from human CSF as described by Bateman et al. 2006, supra.

[2] = cited from earlier work
[3] = Aβ fractional synthesis and clearance rate in CSF (immunoprecipitation-MS/MS after ^13C6-leucine labeling); type: in vivo, human; details: 6 healthy young participants
Excerpt: Protein production and clearance are important parameters that are tightly regulated and reflect normal physiology as well as disease states. Previous studies of protein metabolism in humans have focused on whole body or peripheral body proteins, but not on proteins produced in the central nervous system (CNS). No methods were previously available to quantify protein production or clearance rates in the CNS of humans. Such a method would be valuable to assess not only Aβ production or clearance rates in humans but also the metabolism of a variety other proteins relevant to diseases of the CNS. In order to address critical questions about underlying AD pathogenesis and Aβ metabolism, a method for quantifying Aβ fractional synthesis rate (FSR) and fractional clearance rate (FCR) in vivo in the CNS of humans was developed.
For each sample of CSF collected, the ratio of labeled to unlabeled Aβ was determined by immunoprecipitation-MS/MS, as described above. […]
The fractional synthesis rate (FSR) was calculated using the standard formula, presented below: […]
The fractional clearance rate (FCR) was calculated by fitting the slope of the natural logarithm of the clearance portion of the labeled Aβ curve, according to the following formula: […]

Aβ: endogenous amyloid-beta peptide (SEQ ID NO:1) produced in the CNS from amyloid precursor protein
fractional clearance rate (FCR) of soluble cortical Aβ [1]: 7.62±1.25 % per hour
t1/2 in brain interstitial fluid [2]: 1 to 2 h
average fractional clearance rate (FCR) ([3]; 24 to 36 hours): 8.3 %/hr
average fractional synthesis rate (FSR) ([3]; slope 6 to 15 hours): 7.6 %/hr
